According to patent US8304422B2, “Compositions and methods for inhibition of the JAK pathway” (Rigel Pharmaceuticals, Inc., priority 2007, dated 2012):

Tested on: BaF3 V617F cells; UKE-1
Assay: Proliferation Assay (Cell Titer-Glo; Example 7)
Assay type: cell-based
Details: proliferation 72 hours, inhibit JAK2 activity, cell line (BaF3 V617F or UKE-1) not stated
Summary of the method: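 BaF3 V617F cells (RPMI, 10% FBS) and UKE-1 cells (Iscove's DMEM, 10% FBS, 10% equine serum, 1 uM hydrocortisone) were exposed to 3-fold serially diluted compound in duplicate for 72 hours at 37 °C. Viable cell number quantified by Cell Titer-Glo luminescence; IC50 reported.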

IC50 [nM] | Structure (SMILES)
142 | CCOc1c(C)cc(Nc2ncc(Cl)c(Nc3ccc(CNS(N)(=O)=O)cc3)n2)cc1C [II-147, N4-[4-(Aminosulfonylamino)methylphenyl]-5-chloro-N2-(3,5-Dimethyl-4-ethoxyphenyl)-2,4-pyrimidinediamine]
1320 | CN1CCN(c2ccc(Nc3ncc(Cl)c(Nc4ccc(CNS(N)(=O)=O)cc4)n3)cc2)CC1 [II-148, N4-[4-(Aminosulfonylamino)methylphenyl]-5-chloro-N2-[4-(4-methyl-1-piperazinyl)phenyl]-2,4-pyrimidinediamine]
1040 | Cc1cc(Nc2ncc(Cl)c(Nc3ccc(CNS(N)(=O)=O)cc3)n2)ccc1N1CCN(C)CC1 [II-149, N4-[4-(Aminosulfonylamino)methylphenyl]-5-chloro-N2-[3-methyl-4-(4-methyl-1-piperazinyl)phenyl]-2,4-pyrimidinediamine]
307 | COc1c(C)cc(Nc2ncc(Cl)c(Nc3ccc(CNS(=O)(=O)C4CC4)cc3C)n2)cc1C [II-150, 5-Chloro-N2-(3,5-dimethyl-4-methoxyphenyl)-N4-[2-methyl-4-(N-cyclopropylsulfonylamino)methylphenyl]-2,4-pyrimidinediamine]
398 | CCOc1c(C)cc(Nc2ncc(Cl)c(Nc3ccc(CNS(=O)(=O)C4CC4)cc3C)n2)cc1C [II-151, 5-Chloro-N2-(3,5-dimethyl-4-ethoxyphenyl)-N4-[2-methyl-4-(N-cyclopropylsulfonylamino)methylphenyl]-2,4-pyrimidinediamine]
357 | Cc1cc(CNS(=O)(=O)C2CC2)ccc1Nc1nc(Nc2ccc(N3CCN(C)CC3)cc2)ncc1Cl [II-152, 5-Chloro-N4-[2-methyl-4-(N-cyclopropylsulfonylamino)methylphenyl]-N2-[4-(4-methyl-1-piperazinyl)phenyl]-2,4-pyrimidinediamine]
3330 | Cc1cc(CNS(=O)(=O)C2CC2)ccc1Nc1nc(Nc2ccc(N3CCN(C)CC3)c(C)c2)ncc1Cl [II-153, 5-Chloro-N4-[2-methyl-4-(N-cyclopropylsulfonylamino)methylphenyl]-N2-[3-methyl-4-(4-methyl-1-piperazinyl)phenyl]-2,4-pyrimidinediamine]
42.9 | COc1c(C)cc(Nc2ncc(Cl)c(Nc3ccc(CNS(=O)(=O)NC4CC4)cc3)n2)cc1C [II-154, 5-Chloro-N4-[4-((N-cyclopropylamino)sulfonylamino)methylphenyl]-N2-(3,5-dimethyl-4-methoxyphenyl)-2,4-pyrimidinediamine]
83.1 | CCOc1c(C)cc(Nc2ncc(Cl)c(Nc3ccc(CNS(=O)(=O)NC4CC4)cc3)n2)cc1C [II-155, 5-Chloro-N4-[4-((N-cyclopropylamino)sulfonylamino)methylphenyl]-N2-(3,5-dimethyl-4-ethoxyphenyl)-2,4-pyrimidinediamine]
58.1 | Cc1cc(Nc2ncc(Cl)c(Nc3ccc(CNS(=O)(=O)NC4CC4)cc3)n2)cc(C)c1OC(C)C [II-156, 5-Chloro-N4-[4-((N-cyclopropylamino)sulfonylamino)methylphenyl]-N2-(3,5-dimethyl-4-(1-methyl)ethoxyphenyl)-2,4-pyrimidinediamine]
138 | CCCOc1c(C)cc(Nc2ncc(Cl)c(Nc3ccc(CNS(=O)(=O)NC4CC4)cc3)n2)cc1C [II-157, 5-Chloro-N4-[4-((N-cyclopropylamino)sulfonylamino)methylphenyl]-N2-(3,5-dimethyl-4-propoxyphenyl)-2,4-pyrimidinediamine]
158 | COc1cc(Nc2ncc(Cl)c(Nc3ccc(CNS(=O)(=O)NC4CC4)cc3)n2)cc(C)c1OC [II-158, 5-Chloro-N4-[4-((N-cyclopropylamino)sulfonylamino)methylphenyl]-N2-(3,4-dimethoxy-5-methylphenyl)-2,4-pyrimidinediamine]
149 | Cc1cc(CNS(=O)(=O)C2CC2)ccc1Nc1nc(NC2=CC(C)C(C)(OCCN3CCOCC3)C=C2)ncc1C (stereo not shown) [II-161, N2-[3,4-Dimethyl-4-(2-(4-morpholinyl)ethoxy)phenyl]-5-methyl-N4-[2-methyl-4-(N-cyclopropylsulfonylamino)methylphenyl]-2,4-pyrimidinediamine]
134 | COc1c(C)cc(Nc2ncc(C)c(Nc3ccc(CNS(=O)(=O)NC4CC4)cc3)n2)cc1C [II-162, N4-[4-((N-Cyclopropylamino)sulfonylamino)methylphenyl]-N2-(3,5-dimethyl-4-methoxyphenyl)-5-methyl-2,4-pyrimidinediamine]
63.6 | CCOc1c(C)cc(Nc2ncc(C)c(Nc3ccc(CNS(=O)(=O)NC4CC4)cc3)n2)cc1C [II-163, N4-[4-((N-Cyclopropylamino)sulfonylamino)methylphenyl]-N2-(3,5-dimethyl-4-ethoxyphenyl)-5-methyl-2,4-pyrimidinediamine]
94.8 | Cc1cnc(Nc2cc(C)c(OC(C)C)c(C)c2)nc1Nc1ccc(CNS(=O)(=O)NC2CC2)cc1 [II-164, N4-[4-((N-Cyclopropylamino)sulfonylamino)methylphenyl]-N2-[3,5-dimethyl-4-(1-methyl)ethoxyphenyl]-5-methyl-2,4-pyrimidinediamine]

IC50 [nM] | Structure (SMILES)
323 | CCCOc1c(C)cc(Nc2ncc(C)c(Nc3ccc(CNS(=O)(=O)NC4CC4)cc3)n2)cc1C [II-165, N4-[4-((N-Cyclopropylamino)sulfonylamino)methylphenyl]-N2-(3,5-dimethyl-4-propoxyphenyl)-5-Methyl-2,4-pyrimidinediamine]
247 | COc1cc(Nc2ncc(C)c(Nc3ccc(CNS(=O)(=O)NC4CC4)cc3)n2)cc(C)c1OC [II-166, N4-[4-((N-Cyclopropylamino)sulfonylamino)methylphenyl]-N2-(3,4-dimethoxy-5-methylphenyl)-5-methyl-2,4-pyrimidinediamine]
205 | CN1CCN(c2ccc(Nc3ncc(Cl)c(Nc4ccc(CNS(=O)(=O)NC5CC5)cc4)n3)cc2)CC1 [II-167, 5-Chloro-N4-[4-((N-cyclopropylamino)sulfonylamino)methylphenyl]-N2-[4-(4-methyl-1-piperazinyl)phenyl]-2,4-pyrimidinediamine]
2050 | Cc1cc(Nc2ncc(Cl)c(Nc3ccc(CNS(=O)(=O)NC4CC4)cc3)n2)ccc1N1CCN(C)CC1 [II-168, 5-Chloro-N4-[4-((N-cyclopropylamino)sulfonylamino)methylphenyl]-N2-[3-methyl-4-(4-methyl-1-piperazinyl)phenyl]-2,4-pyrimidinediamine]
348 | CN1CCN(c2ccc(Nc3ncc(Cl)c(Nc4ccc(CNS(=O)(=O)NC5CC5)cc4)n3)cn2)CC1 [II-169, 5-Chloro-N4-[4-((N-cyclopropylamino)sulfonylamino)methylphenyl]-N2-[6-(4-methyl-1-piperazinyl)-3-pyridinyl]-2,4-pyrimidinediamine]
735 | Cc1cnc(Nc2ccc(N3CCN(C)CC3)cc2)nc1Nc1ccc(CNS(=O)(=O)NC2CC2)cc1 [II-171, N4-[4-((N-Cyclopropylamino)sulfonylamino)methylphenyl]-5-methyl-N2-[4-(4-methyl-1-piperazinyl)phenyl]-2,4-pyrimidinediamine]
2260 | Cc1cc(Nc2ncc(C)c(Nc3ccc(CNS(=O)(=O)NC4CC4)cc3)n2)ccc1N1CCN(C)CC1 [II-172, N4-[4-((N-Cyclopropylamino)sulfonylamino)methylphenyl]-5-methyl-N2-[3-methyl-4-(4-methyl-1-piperazinyl)phenyl]-2,4-pyrimidinediamine]
2340 | Cc1cnc(Nc2ccc(N3CCN(C)CC3)nc2)nc1Nc1ccc(CNS(=O)(=O)NC2CC2)cc1 [II-173, N4-[4-((N-Cyclopropylamino)sulfonylamino)methylphenyl]-5-methyl-N2-[6-(4-methyl-1-piperazinyl)-3-pyridinyl]-2,4-pyrimidinediamine]
354 | COc1c(C)cc(Nc2ncc(Cl)c(Nc3ccc(CNS(=O)(=O)NC4CC4)cc3C)n2)cc1C [II-175, 5-Chloro-N2-(3,5-dimethyl-4-methoxyphenyl)-N4-[2-methyl-4-((N-cyclopropylamino)sulfonylamino)methylphenyl]-2,4-pyrimidinediamine]
190 | CCOc1c(C)cc(Nc2ncc(Cl)c(Nc3ccc(CNS(=O)(=O)NC4CC4)cc3C)n2)cc1C [II-176, 5-Chloro-N2-(3,5-dimethyl-4-ethoxyphenyl)-N4-[2-methyl-4-((N-cyclopropylamino)sulfonylamino)methylphenyl]-2,4-pyrimidinediamine]
643 | Cc1cc(CNS(=O)(=O)NC2CC2)ccc1Nc1nc(Nc2cc(C)c(OC(C)C)c(C)c2)ncc1Cl [II-177, 5-Chloro-N2-(3,5-dimethyl-4-(1-methylethoxy)phenyl)-N4-[2-methyl-4-((N-cyclopropylamino)sulfonylamino)methylphenyl]-2,4-pyrimidinediamine]
428 | CCCOc1c(C)cc(Nc2ncc(Cl)c(Nc3ccc(CNS(=O)(=O)NC4CC4)cc3C)n2)cc1C [II-178, 5-Chloro-N2-(3,5-dimethyl-4-propoxyphenyl)-N4-[2-methyl-4-((N-cyclopropylamino)sulfonylamino)methylphenyl]-2,4-pyrimidinediamine]
215 | COc1cc(Nc2ncc(Cl)c(Nc3ccc(CNS(=O)(=O)NC4CC4)cc3C)n2)cc(C)c1OC [II-179, 5-Chloro-N2-(3,4-dimethoxy-5-methylphenyl)-N4-[2-methyl-4-((N-cyclopropylamino)sulfonylamino)methylphenyl]-2,4-pyrimidinediamine]
633 | Cc1cc(CNS(=O)(=O)NC2CC2)ccc1Nc1nc(Nc2ccc(N3CCN(C)CC3)cc2)ncc1Cl [II-180, 5-Chloro-N4-[2-methyl-4-((N-cyclopropylamino)sulfonylamino)methylphenyl]-N2-[4-(4-methyl-1-piperazinyl)phenyl]-2,4-pyrimidinediamine]
4330 | Cc1cc(CNS(=O)(=O)NC2CC2)ccc1Nc1nc(Nc2ccc(N3CCN(C)CC3)c(C)c2)ncc1Cl [II-181, 5-Chloro-N4-[2-methyl-4-((N-cyclopropylamino)sulfonylamino)methylphenyl]-N2-[3-methyl-4-(4-methyl-1-piperazinyl)phenyl]-2,4-pyrimidinediamine]
